Results reported in patent publication US10363253B2, “Combination products for the treatment of RSV” (priority 2016, dated 2019).
Read-outs that look alike come from different tables or passages of the source.

System: rgRSV224, an engineered RSV strain that encodes for eGFP
Format: cell-based
Conditions: A = 0
Protocol: To evaluate their combined antiviral effect against RSV, in vitro combination studies were performed with JNJ-53718678 (“compound A”) and various compounds with different mechanisms-of-action (“compound B”). In short, 9 concentrations of Compound A were combined with 6 or 7 concentrations of a certain compound B. HeLa cells were infected with rgRSV224, an engineered RSV strain that encodes for eGFP (Hallak L K, Spillmann D, Collins P L, Peeples M E. Glycosaminoglycan sulfation requirements for respiratory syncytial virus infection; Journal of Virology (2000), 74(22), 10508-13), in the presence of various concentrations of compound A and compound B individually or in combination.
Compound stock solutions were 5 mM in 100% DMSO, with following exceptions: ribavirin, 20 mM; A 60444, 10 mM; CR9501, 141 μM in PBS; palivizumab, 156 μM in PBS; MDT 637, 100 μM in methanol. First, the compounds were serially diluted in 3-fold dilution series in DMSO; CR9501 and palivizumab were serially diluted in cell culture medium, and MDT 637 in methanol. The concentration series were diluted 100-fold in cell culture medium to achieve a combination matrix. 10 μL of these compound solutions were transferred to black 384-well clear-bottom tissue-culture treated plates. Next, 10 μL of a […] HeLa cell suspension was added to achieve 3000 cells per well. Finally, 10 μL of diluted virus stock was added to achieve an MOI of 1. The final DMSO concentration of all wells was 0.5% DMSO, except for the MDT 637 experiment where it was 0.25% DMSO+0.25% methanol. Each combination of compound concentrations was tested in 4 replicates on 3 separate plates, resulting in a total of 12 replicates. The plates were incubated for 3 days at 37° C. in a humidified atmosphere at 5% CO2. The GFP signal was measured with PerkinElmer EnVision apparatus using a 405 nm filter.
The method of Harbron (Statistics in Medicine, 2010, DOI:10.1002/sim3916) was used to assess synergy. Using the Loewe definition, two compounds are characterized as being additive, synergistic or antagonistic by:
where d1 and d2 represent the doses of the two compounds that in combination produce an effect y, and Dy,1 and Dy,2 represent the doses of the two compounds that produce the same effect, y, when administered as a monotherapy. A 3PL model (3-parameter log-logistic model) was used for the monotherapy dose-response data, where the baseline response was fixed at one.
Following Harbron's approach, the following models were fitted to the data: • “Additive”: assuming no interaction between the two compounds • “Uniform”: assuming a constant interaction index τ across all dose combinations • “Linear A”: assuming the interaction index linearly depends on the log 10 dose of compound A: z=τ1+τ2 log 10(dA) • “Separate A”: assuming the interaction index τ takes a separate value for each dose of compound A The latter two models were also considered for compound B: • “Linear B”: assuming the interaction index linearly τ depends on the log 10 dose of compound B: τ=τ1+τ2 log 10(dB) • “Separate B”: assuming the interaction index τ takes a separate value for each dose of compound B

O=C(NC1CC1)c1cc2c(s1)-c1ccccc1N(C(=O)c1ccc(NC(=O)c3cccnc3N3CCC4(CC3)COC4)cc1)CC2 [AZ-27, N-cyclopropyl-5,6-dihydro-6-[4-[[[2-(2-oxa-7-azaspiro [3.5]non-7-yl)-3-pyridinyl]carbonyl]-amino]benzoyl]-4H-thieno [3,2-d][1]benzazepine-2-carboxamide, reference compound]
normalized GFP signal (B (AZ-27) = 17): 1.03 | normalized GFP signal (B (AZ-27) = 51): 1.00 | normalized GFP signal (B (AZ-27) = 154): 0.53 | normalized GFP signal (B (AZ-27) = 463): 0.07 | normalized GFP signal (B (AZ-27) = 1389): 0.01 | normalized GFP signal (B (AZ-27) = 4167): 0.00

COc1ccc(CCNCCCN2C(=O)c3c(cc(N)c4nc(-c5ccc(C)c([N+](=O)[O-])c5)[nH]c34)C(C)(C)C2=O)cc1OC [CAS 851658-10-1, 4-amino-8-[3-[[2-(3,4-dimethoxyphenyl)ethyl]amino]propyl]-6,6-dimethyl-2-(4-methyl-3-nitrophenyl)-3H-imidazo[4,5-h]isoquinoline-7,9(6H,8H)-dione, reference compound]
normalized GFP signal (B (CAS 851658-10-1) = 1.9): 0.99 | normalized GFP signal (B (CAS 851658-10-1) = 5.7): 0.97 | normalized GFP signal (B (CAS 851658-10-1) = 17): 0.89 | normalized GFP signal (B (CAS 851658-10-1) = 51): 0.74 | normalized GFP signal (B (CAS 851658-10-1) = 154): 0.38 | normalized GFP signal (B (CAS 851658-10-1) = 463): 0.05 | normalized GFP signal (B (CAS 851658-10-1) = 1389): 0.01
